For eight compounds, IC50 results are on record in ChEMBL document CHEMBL5032537, “Synthetic development of sugar amino acid oligomers towards novel podophyllotoxin analogues” (Bioorg Med Chem, 2021).

Each structure is given as a SMILES string. Bounds are passed on as bounds.

One assay deals with HT-29. The assay can be described thus: Antiproliferative activity against human HT-29 cells assessed as inhibition of cell proliferation measured after 48 hrs by SRB assay. In kind it is functional, cell-based. Particulars: HT-29, 48 h.
Another assay has as its system HT-1080. The assay can be described thus: Antiproliferative activity against human HT-1080 cells assessed as inhibition of cell proliferation measured after 48 hrs by SRB assay. In kind it is functional, cell-based. Particulars: HT-1080, 48 h. (In general: The SRB assay estimates cell density from bound dye.)
A further assay has as its system M21. The experiment in a line: Antiproliferative activity against human M21 cells assessed as inhibition of cell proliferation measured after 48 hrs by SRB assay. In kind it is functional, cell-based. Particulars: M21, 48 h.
A further assay deals with HaCaT. The assay can be described thus: Antiproliferative activity against human HaCaT cells assessed as inhibition of cell proliferation measured after 48 hrs by SRB assay. In kind it is cell-based.

Usually IC50 stands for the concentration needed to halve the response being measured. As for `COc1ccc(/C=C\c2cc(OC)c(OC)c(OC)c2)cc1O` [COMBRETASTATIN A4], the half-maximal inhibitory concentration (IC50) with HT-29 was more than 1000 nM; in the assay on HT-1080, 2.6 nM; in the assay on M21 it was 1.9 nM; in the assay with HaCaT it was 3.4 nM.

For the compound `COc1cc([C@@H]2c3cc4c(cc3[C@@H](n3cc(CNC(=O)[C@H]5O[C@H](OC)[C@H](NC(=O)OC(C)(C)C)[C@@H](O)[C@@H]5O)nn3)[C@H]3COC(=O)[C@H]23)OCO4)cc(OC)c1O`, the IC50 in the assay with HT-29, in the assay with HT-1080, with M21 and in the assay with HaCaT was more than 1000 nM throughout.

Consider `COc1cc([C@@H]2c3cc4c(cc3[C@@H](n3cc(CNC(=O)[C@@H]5O[C@H](OC)[C@H](N)[C@@H](O)[C@@H]5O)nn3)[C@H]3COC(=O)[C@H]23)OCO4)cc(OC)c1O`, for which the IC50 in the assay with HT-29, in the assay with HT-1080, in the assay on M21 and with HaCaT was more than 100000 nM each time.

With `COc1cc([C@@H]2c3cc4c(cc3[C@@H](N=[N+]=[N-])[C@H]3COC(=O)[C@H]23)OCO4)cc(OC)c1O`, the IC50 is 600 nM in the assay with HT-29, 600 nM in the assay on HT-1080, 600 nM in the assay with M21 and 500 nM with HaCaT.

As to `COc1cc([C@@H]2c3cc4c(cc3[C@@H](n3cc(CNC(=O)[C@@H]5O[C@H](OC)[C@H](O)[C@@H](O)[C@@H]5O)nn3)[C@H]3COC(=O)[C@H]23)OCO4)cc(OC)c1O`, the half-inhibitory concentration (IC50) in the assay on HT-29, in the assay on HT-1080, with M21 and with HaCaT was more than 100000 nM throughout.

Consider `COc1cc([C@@H]2c3cc4c(cc3[C@@H](O)[C@H]3COC(=O)[C@H]23)OCO4)cc(OC)c1O` [4'-DEMETHYLEPIPODOPHYLLOTOXIN], for which the IC50 with HT-29 stood at 150 nM; in the assay on HT-1080 it was 110 nM; in the assay on M21, 170 nM; with HaCaT, 160 nM.

In the case of `COc1cc([C@@H]2c3cc4c(cc3[C@@H](n3cc(CNC(=O)[C@@H]5O[C@H](OC)[C@H](NC(C)=O)[C@@H](O)[C@@H]5O)nn3)[C@H]3COC(=O)[C@H]23)OCO4)cc(OC)c1O`, the IC50 with HT-29, with HT-1080, in the assay with M21 and with HaCaT was more than 100000 nM each time.

For `COc1cc([C@@H]2c3cc4c(cc3[C@@H](O[C@@H]3O[C@@H]5CO[C@@H](C)O[C@H]5[C@H](O)[C@H]3O)[C@H]3COC(=O)[C@H]23)OCO4)cc(OC)c1O` [ETOPOSIDE], the 50% inhibitory concentration (IC50) stood at 9000 nM in the assay on HT-29, 2000 nM with HT-1080, 200 nM in the assay on M21 and 6000 nM with HaCaT.
